Results taken from the NIST ThermoML archive (doi:10.1016/j.tca.2010.09.004).

Assay: xn = mol fraction of the nth substance listed
Conditions: 101 kPa, Liquid; for speed of sound: Sing-around technique in a fixed-path interferometer; for mass density: Vibrating tube method

CCCCNCCCC [dibutylamine] + CCC(C)=O
Conditions | mass density [kg/m3] | speed of sound [m/s]
293.15 K, x2 = 0.0568 | 760.739 | 1258.2
293.15 K, x2 = 0.1152 | 762.014 | 1255
293.15 K, x2 = 0.1488 | 762.814 | 1252.9
293.15 K, x2 = 0.1968 | 764.024 | 1250.3
293.15 K, x2 = 0.2539 | 765.57 | 1247.2
293.15 K, x2 = 0.3056 | 767.093 | 1244.4
293.15 K, x2 = 0.3564 | 768.675 | 1241.6
293.15 K, x2 = 0.4105 | 770.501 | 1238.7
293.15 K, x2 = 0.4545 | 772.103 | 1236.4
293.15 K, x2 = 0.5005 | 773.872 | 1234
293.15 K, x2 = 0.5553 | 776.145 | 1231.1
293.15 K, x2 = 0.6022 | 778.277 | 1228.9
293.15 K, x2 = 0.6554 | 780.87 | 1225.8
293.15 K, x2 = 0.7036 | 783.444 | 1223.3
293.15 K, x2 = 0.7554 | 786.435 | 1220.8
293.15 K, x2 = 0.8022 | 789.404 | 1218.7
293.15 K, x2 = 0.8598 | 793.411 | 1216.3
293.15 K, x2 = 0.9001 | 796.544 | 1215
293.15 K, x2 = 0.9513 | 800.881 | 1213.5
298.15 K, x2 = 0.0681 | 756.775 | 1237.3
298.15 K, x2 = 0.1038 | 757.539 | 1235.3
298.15 K, x2 = 0.1625 | 758.95 | 1232
298.15 K, x2 = 0.2034 | 759.972 | 1229.9
298.15 K, x2 = 0.2603 | 761.475 | 1226.7
298.15 K, x2 = 0.3112 | 762.929 | 1223.8
298.15 K, x2 = 0.3523 | 764.175 | 1221.6
298.15 K, x2 = 0.3937 | 765.506 | 1219.4
298.15 K, x2 = 0.442 | 767.105 | 1216.6
298.15 K, x2 = 0.5018 | 769.396 | 1213.3
298.15 K, x2 = 0.5455 | 771.147 | 1211
298.15 K, x2 = 0.6036 | 773.698 | 1207.7
298.15 K, x2 = 0.6514 | 775.963 | 1205.2
298.15 K, x2 = 0.7003 | 778.472 | 1202.7
298.15 K, x2 = 0.7473 | 781.05 | 1200.3
298.15 K, x2 = 0.7978 | 784.142 | 1197.9
298.15 K, x2 = 0.8456 | 787.356 | 1195.9
298.15 K, x2 = 0.9022 | 791.581 | 1193.7
298.15 K, x2 = 0.9482 | 795.385 | 1192.3
303.15 K, x2 = 0.0621 | 752.548 | 1218.9
303.15 K, x2 = 0.1098 | 753.539 | 1216.1
303.15 K, x2 = 0.1666 | 754.759 | 1212.6
303.15 K, x2 = 0.2074 | 755.736 | 1210.3
303.15 K, x2 = 0.2593 | 757.08 | 1207.2
303.15 K, x2 = 0.309 | 758.454 | 1204.7
303.15 K, x2 = 0.3551 | 759.79 | 1202
303.15 K, x2 = 0.4045 | 761.368 | 1199.3
303.15 K, x2 = 0.4566 | 763.133 | 1196.4
303.15 K, x2 = 0.4957 | 764.551 | 1194.1
303.15 K, x2 = 0.5402 | 766.282 | 1191.6
303.15 K, x2 = 0.6005 | 768.842 | 1188.2
303.15 K, x2 = 0.6493 | 771.091 | 1185.6
303.15 K, x2 = 0.7004 | 773.646 | 1182.9
303.15 K, x2 = 0.7486 | 776.288 | 1180.5
303.15 K, x2 = 0.8005 | 779.398 | 1177.9
303.15 K, x2 = 0.8456 | 782.362 | 1175.9
303.15 K, x2 = 0.899 | 786.254 | 1173.7
303.15 K, x2 = 0.953 | 790.578 | 1172
